This test concerns the target T1, Human TRPV3 (Homo sapiens, UniProt Q8NET8).
T1 construct: expressed in transfected cells; host or cells: CHO cells (selected with G-418)
T1 sequence (Q8NET8 1-790): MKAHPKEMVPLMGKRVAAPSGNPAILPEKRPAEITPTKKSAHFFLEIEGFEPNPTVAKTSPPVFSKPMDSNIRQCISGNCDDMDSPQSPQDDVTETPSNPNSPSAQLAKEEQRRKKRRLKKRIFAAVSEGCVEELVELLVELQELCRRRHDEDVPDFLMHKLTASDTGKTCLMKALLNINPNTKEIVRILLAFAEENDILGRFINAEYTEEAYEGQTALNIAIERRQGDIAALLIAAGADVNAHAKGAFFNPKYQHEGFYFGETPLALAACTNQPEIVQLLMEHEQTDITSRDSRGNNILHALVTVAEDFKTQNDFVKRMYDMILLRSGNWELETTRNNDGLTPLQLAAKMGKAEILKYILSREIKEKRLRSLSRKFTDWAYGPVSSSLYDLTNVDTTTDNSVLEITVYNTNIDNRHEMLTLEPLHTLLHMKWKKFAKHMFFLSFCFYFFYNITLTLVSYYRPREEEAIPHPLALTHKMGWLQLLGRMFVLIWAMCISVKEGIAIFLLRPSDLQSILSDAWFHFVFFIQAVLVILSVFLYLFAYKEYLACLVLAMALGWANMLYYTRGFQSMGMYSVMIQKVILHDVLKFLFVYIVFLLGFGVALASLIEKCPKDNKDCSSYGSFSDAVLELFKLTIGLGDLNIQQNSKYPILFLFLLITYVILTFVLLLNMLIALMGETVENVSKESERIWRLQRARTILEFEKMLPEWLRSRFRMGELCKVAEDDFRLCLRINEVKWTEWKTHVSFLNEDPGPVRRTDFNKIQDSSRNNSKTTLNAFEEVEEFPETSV
The test is described as follows: Screening for TRPV3 antagonist using the 45Calcium uptake assay (inhibition of 2-APB induced cellular uptake of radioactive calcium). The test is classed as cell-based. Conditions: Human TRPV3 expressing CHO cells, 2-APB 500 μM; for inhibition at 1 µM / inhibition at 10 µM: CHO; for inhibition at 1 µM: 1.0 μM test compound, read-out: Percentage inhibition at 1.0 μM; for inhibition at 10 µM: 10.0 μM test compound, read-out: Percentage inhibition at 10.0 μM. From the text:
The illustrative examples of the present invention are screened for TRPV3 activity according to a modified procedure described in Tóth, A., Kedei, N., Wang, Y. and Blumberg, P. M. Life Sciences (2003), 73, 487-498. The screening of the compounds can be carried out by other methods and procedures known to a person skilled in the art. Such screening methods may be found in (a) Hu, H.-Z. et al. J. Biol. Chem. (2004), 279, 35741-35747; (b) Smith, G. D. et al. Nature (2002), 418, 186-190; (c) Peier, A. M. et al. Science (2002), 296, 2046-2049.
Screening for TRPV3 Antagonist Using the ^45Calcium Uptake Assay:
The inhibition of TRPV3 receptor activation was followed as inhibition of 2-aminoethxydiphenylborate (2-APB) induced cellular uptake of radioactive calcium. Test compounds were dissolved in dimethyl sulfoxide (DMSO) to prepare 20 mM stock solution and then diluted using plain medium with DMEM/F-12 containing 1.8 mM CaCl2 to get desired concentration. Final concentration of DMSO in the reaction was 0.5% (v/v). Human TRPV3 expressing CHO cells were grown in DMEM/F-12 medium with 10% FBS, 1% penicillin-streptomycin solution, 400 μg/ml of G-418. Cells were seeded 24 h prior to the assay in 96 well plates so as to get ˜50,000 cells per well on the day of experiment. Cells were treated with test compounds for 10 minutes followed by addition of 2-APB at a final concentration of 500 μM and 5 μCi/ml ^45Ca^+2 for 4 minutes. Cells were washed and lysed using buffer containing 1% Triton X-100, 0.1% deoxycholate and 0.1% SDS. Radioactivity in the lysate was measured in Packardt Top count after addition of liquid scintillant. Concentration response curves were plotted as a % of maximal response obtained in the absence of test antagonist. IC50 value was calculated from concentration response curve by nonlinear regression analysis using GraphPad PRISM software.
Percentage inhibition at concentrations of 1.0 μM and 10.0 μM are given in the table along with IC50 (nM) values for selected examples.

What is called inhibition is the percentage by which the read-out fell short of the control. The term IC50 denotes the concentration that gives 50% inhibition.

For `COc1cccc(/C=C/c2nc3ccccn3c(=O)c2-c2ccc(OC(F)(F)F)cc2)c1OC1CCCC1` [Example 24, 2-{(E)-2-[(2-Cyclopentyloxy-3-methoxy)phenyl]vinyl}-3-(4-trifluoromethoxy)phenyl-4H-pyrido[1,2-a]pyrimidin-4-one], the inhibition at 1 µM was 20.6%, the inhibition at 10 µM came to 3.6% and the concentration for half-maximal inhibition (IC50) lay in the range of 1000 to 2500 nM.
Consider `COc1cccc(/C=C/c2nc3ccc(Cl)cn3c(=O)c2-c2ccc(C#N)cc2)c1OC1CCCC1` [Example 43, 4-{7-Chloro-2-[(E)-2-(2-cyclopentyloxy-3-methoxy)phenylvinyl]-4-oxo-4H-pyrido[1,2-a]pyrimidin-3-yl}benzonitrile], for which the inhibition at 1 µM was 78.7%, the inhibition at 10 µM came out at 90.2% and the IC50 was less than 500 nM.
Consider `COc1cccc(/C=C/c2nc3ccccn3c(=O)c2-c2cccc(OC(C)C)c2)c1OC1CCCC1` [Example 27, 3-(3-Isopropoxyphenyl)-2-[(E)-2-(2-cyclopentyloxy-3-methoxy)phenylvinyl]-4H-pyrido-[1,2-a]pyrimidin-4-one], for which the inhibition at 1 µM was found to be 54.2%, the inhibition at 10 µM was 77.6% and the IC50 fell in the range of 1000 to 2500 nM.
Take `COc1cccc(/C=C/c2nc3c(OC)cccn3c(=O)c2-c2ccc(C#N)cc2)c1OC1CCCC1` [Example 41, 4-{2-[(E)-2-(2-Cyclopentyloxy-3-methoxyphenyl)vinyl]-9-methoxy-4-oxo-4H-pyrido[1,2-a]pyrimidin-3-yl}benzonitrile]: the inhibition at 1 µM turned out to be 54.8% and the inhibition at 10 µM is 87.6%.
As to `COc1cccc(/C=C/c2nc3ccccn3c(=O)c2-c2ccc3c(c2)OCCO3)c1OC1CCCC1` [Example 38, 2-[(E)-2-(2-Cyclopentyloxy-3-methoxyphenyl)vinyl]-3-(2,3-dihydro-1,4-benzodioxin-6-yl)-4H-pyrido[1,2-a]pyrimidin-4-one], the inhibition at 1 µM was determined as 55.5%, the inhibition at 10 µM is 83.8% and the concentration for half-maximal inhibition (IC50) is less than 500 nM.
As to `COc1cccc(/C=C/c2nc3ccccn3c(=O)c2-c2ccccc2)c1OC1CCCC1` [Example 20, 2-{(E)-2-[2-(Cyclopentyloxy)-3-methoxyphenyl]vinyl}-3-phenyl-4H-pyrido[1,2-a]-pyrimidin-4-one], the inhibition at 1 µM came to 45.9%, the inhibition at 10 µM is 76.7% and the IC50 fell in the range of 1000 to 2500 nM.
With `COc1cccc(/C=C/c2nc3ccc(Cl)cn3c(=O)c2-c2ccc(C#N)cc2)c1OCC1CC1` [Example 42], the inhibition at 1 µM stood at 0% and the inhibition at 10 µM was determined as 96.8%.
For `CCCOc1c(/C=C/c2nc3ccccn3c(=O)c2-c2ccc(C#N)cc2)cccc1OC` [Example 7], the inhibition at 1 µM stood at 77.9% and the inhibition at 10 µM came out at 98.9%.
As for `CCCCCCOc1c(/C=C/c2nc3ccccn3c(=O)c2-c2ccc(C#N)cc2)cccc1OC` [Example 14], the inhibition at 1 µM came out at 85.1%, the inhibition at 10 µM turned out to be 92.3% and the half-inhibitory concentration (IC50) was less than 500 nM.
For the compound `CCCCCOc1c(/C=C/c2nc3ccccn3c(=O)c2-c2ccc(C#N)cc2)cccc1OC` [Example 12, 4-{2-[(E)-2-[3-Methoxy-2-pentyloxyphenyl)vinyl]-4-oxo-4H-pyrido[1,2-a]pyrimidin-3-yl}benzonitrile], the inhibition at 1 µM came to 87.9%, the inhibition at 10 µM turned out to be 96.5% and the IC50 was less than 500 nM.

The values are drawn from US8349846B2, “Fused pyrimidine derivatives as TRPV3 modulators” (Glenmark Pharmaceuticals, S.A., priority 2008, dated 2013).
